From US20140018384A1, “QUINOLINONE DERIVATIVES FOR USE IN THE TREATMENT OF AN AUTOIMMUNE DISEASE AND/OR AN INFLAMMATORY DISEASE” (PRONOXIS AB, priority 2011, published 2014) come the findings set out here.

Like-named read-outs stand apart in the source and are kept apart here.

The test system of one assay is arthritogenic T cells. Briefly: Adoptive transfer of ex vivo treated arthritogenic T cells (splenocytes) to naive recipient DA rats. As to conditions: for T cells capacity to transfer arthritis to naive recipients: 12.5 μM substance, 44 hours ex vivo with ConA, cells injected i.p. into DA rats, FIGS. 2C and D. Format: in vivo, rat. As for the experimental part: Arthritogenic cells were treated with H2O2 (176-1.76 μM) for 20 min and A) granulocytes and B) T cells (see FIGS. 1A and 1B) were investigated for intracellular ROS using a DHR-123 based flow cytometric assay. […] Arthritogenic cells were cultured in presence of Con A and w/wo H2O2 (176-1.76 μM) for 44 hours and then transferred to naïve recipient rats (n=7-9).
(§1) FIG. 2: ROS production and effect on T cell arthritogeniciy of ROS inducing substances. A-B). Thioglycolate recruited rat granulocytes (in accordance with the procedure in Biological Example 3) were treated with 25 μM substance and measurement of ROS production was initiated immediately using an isoluminol based chemiluminescence assay (FIGS. 2A and 2B). […] C-D) Arthritogenic rat splenocytes were treated with 12.5 μM substance during 44 hours ex vivo incubation in presence of ConA (FIGS. 2C and 2D). Following incubation, cells were washed and injected i.p. into naive recipient rats (n=8-11). Disease severity in recipient rats was followed by investigation of macroscopic swelling and redness of the rat joints. Treatment with substance during ex vivo stimulation prevented transfer of arthritogenic T cells.
In order to investigate the effect of ROS on T cell arthritogenicity, spleens were collected from arthritis susceptible DA rats injected with the arthritis inducing oil pristane (0.5 ml per rat s.c.) day −13. Single cell suspensions were prepared from the spleens and red blood cells were lysed. After wash, cells were resuspended in cell culture medium containing concanavalin A (ConA) to a final concentration of 4.5×10̂6 cells/ml. […] The cells were incubated for 44 hours at 37° C. After incubation the cells were washed and resuspended in PBS to a final concentration of 60*10̂6 cells/ml. Cells were injected i.p. (1 ml/rat) into naïve recipient DA rats and disease was followed by macroscopic evaluation of disease.
In order to investigate the effect of ROS inducing substances on T cell arthritogenicity, spleens were collected from arthritis susceptible DA rats injected with the arthritis inducing oil pristane (0.5 ml per rat s.c.) day −13. Single cell suspensions were prepared from the spleens and red blood cells were lysed.
After wash, cells were resuspended in cell culture medium containing concanavalin A (ConA) to a final concentration of 4.5×10̂6 cells/ml. Substance A or B was added to the cells to a final concentration of 12.5 μM. The cells were incubated for 44 hours at 37° C. Control cells were incubated in presence of vehicle control (DMSO). After incubation the cells were washed and resuspended in PBS to a final concentration of C) 30*10̂6 and D) 60*10̂6 cells/ml. Cells were injected i.p. (1 ml/rat) into naïve recipient DA rats and disease was followed by macroscopic evaluation of disease (n=8-11).

Another assay relates to PLB-985 cells. In words: ROS production (isoluminol/HRP luminescence) in PLB-985 cells, Biological Example 1. Format: cell-based. The following applies: 25 μM compound vs. DMSO. Put shortly: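 Cells in HBSS received compound plus isoluminol and HRP; luminescence followed 10–30 min, AUC divided by control to give fold change in NADPH oxidase activity. HL-60: 50 μM compound vs blank; PLB-985: 25 μM compound vs blank or vs DMSO.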

The subject of another assay is Rat granulocytes. Briefly: ROS production in thioglycollate-recruited rat granulocytes, isoluminol chemiluminescence assay. As to conditions: 25 μM compound, compared to DMSO control cells; FIGS. 2A and B. It is filed as cell-based. The method, then: as §1
Rat granulocytes were recruited to the peritoneum by an i.p. injection of 2.4% thioglycollate medium (autoclaved). The peritoneal cavity was washed after 24 hours with ice cold HBSS. Collected cells were, after lysis of red blood cells, washed and resupended in HBSS. In a total volume of 100 μl, compound (25 μM), isoluminol (0.175 mg/ml) and horseradish peroxidase (fraction II) (1.75 U/ml) was added to the cells (0.1*10̂6/well) and resulting ROS production detected as a luminescence signal (fluorescent unit, FU) over time. […] All samples were analysed at least in duplicates.

For the next assay, the system named is granulocytes and T cells. The following applies: H2O2 176-1.76 μM for 20 min.
Where [1] appears, read: setup C, read-out: Activity C (fold increase of NADPH activity compared to control).

Description for granulocytes and T cells: In order to measure the effect of exogenous ROS on intracellular ROS content, single cell suspensions were prepared from rat spleens. After lysis of red blood cells (0.84% ammonium chloride) the cells were stained with antibody His-48-bio (anti-granulocyte) or R73-bio (anti-T cell receptor) followed by staining with streptavidine-APC. Cells were then resuspended in DMEM containing DHR-123 and incubated for 10 minutes at 37° C. […] After 20 minutes incubation, cells were washed, resuspended in PBS and acquired in a FACScalibur. […] Samples were analysed in triplicates.

In the case of `COc1ccc(NC(=O)Cn2cc(C(=O)c3ccccc3)c(=O)c3cc4c(cc32)OCO4)c(OC)c1` [Example 84, 2-(3-Benzoyl-6,7-methylenedioxy-4-oxo-1-quinolinyl)-N-(2,4-dimethoxyphenyl)acetamide], the “T cells capacity to transfer arthritis to naive recipients” value in the assay on arthritogenic T cells is “significantly alters the T cells capacity to transfer arthritis to naïve recipients”. The fold induction at 25 µM in the assay on PLB-985 cells (setting [1]) is 8.4. Moreover, the “cellular ROS production (luminescence signal over time)” value with Rat granulocytes is listed as “clear induction of cellular ROS production”.
As for `O=C(Cn1cc(C(=O)c2ccc3ccccc3c2)c(=O)c2cc3c(cc21)OCO3)Nc1ccc(Cl)cc1` [Example 1, N-(4-Chlorophenyl)-2-[6,7-methylenedioxy-3-(2-naphthoyl)-4-oxo-1-quinolinyl]-acetamide], in the assay on arthritogenic T cells, the “T cells capacity to transfer arthritis to naive recipients” value is “significantly alters the T cells capacity to transfer arthritis to naïve recipients”. For the same compound, the fold induction at 25 µM in the assay on PLB-985 cells (setting [1]) was 45.3; with PLB-985 cells (setup D, read-out: Activity D (fold increase of NADPH activity compared to control)), 27.4; in the assay with PLB-985 cells (setup E, read-out: Activity E (fold increase of NADPH activity compared to control)) it was 8.5. The “cellular ROS production (luminescence signal over time)” value in the assay on Rat granulocytes is reported as “clear induction of cellular ROS production”.
`OO` [Example H2O2, Hydrogen peroxide, reference compound]: the “mean arthritis severity in recipient rats” value is reported as “the effect is lost” with arthritogenic T cells (cells cultured 44 hours with Con A at lower concentrations of H2O2 (below 88 μM)); “significant reduction” in the assay on arthritogenic T cells (cells cultured 44 hours with Con A in presence of 176 μM and 88 μM H2O2). For the same compound, the “intracellular ROS” value with granulocytes and T cells is reported as “Intracellular ROS reflected amount of H2O2 added”.
